For 16 compounds, IC50 and melting point results are on record in patent publication US7531663B2, “3-guanidinocarbonyl-1-heteroaryl-indole derivatives, preparation process, their use as medicaments, and pharmaceutical compositions comprising them” (sanofi-aventis Deutschland GmbH, priority 2003, dated 2009).

Each structure is given as a SMILES string. Structures can show the parent of a compound that is named as a salt.

The target of data set [1] is T1, NHE1 (Homo sapiens, UniProt P19634).
T1 construct: expressed in transfected cells; host or cells: LAP-1 (parental line without endogenous NHE activity), G418-selected transfectants
T1 sequence (P19634 whole entry): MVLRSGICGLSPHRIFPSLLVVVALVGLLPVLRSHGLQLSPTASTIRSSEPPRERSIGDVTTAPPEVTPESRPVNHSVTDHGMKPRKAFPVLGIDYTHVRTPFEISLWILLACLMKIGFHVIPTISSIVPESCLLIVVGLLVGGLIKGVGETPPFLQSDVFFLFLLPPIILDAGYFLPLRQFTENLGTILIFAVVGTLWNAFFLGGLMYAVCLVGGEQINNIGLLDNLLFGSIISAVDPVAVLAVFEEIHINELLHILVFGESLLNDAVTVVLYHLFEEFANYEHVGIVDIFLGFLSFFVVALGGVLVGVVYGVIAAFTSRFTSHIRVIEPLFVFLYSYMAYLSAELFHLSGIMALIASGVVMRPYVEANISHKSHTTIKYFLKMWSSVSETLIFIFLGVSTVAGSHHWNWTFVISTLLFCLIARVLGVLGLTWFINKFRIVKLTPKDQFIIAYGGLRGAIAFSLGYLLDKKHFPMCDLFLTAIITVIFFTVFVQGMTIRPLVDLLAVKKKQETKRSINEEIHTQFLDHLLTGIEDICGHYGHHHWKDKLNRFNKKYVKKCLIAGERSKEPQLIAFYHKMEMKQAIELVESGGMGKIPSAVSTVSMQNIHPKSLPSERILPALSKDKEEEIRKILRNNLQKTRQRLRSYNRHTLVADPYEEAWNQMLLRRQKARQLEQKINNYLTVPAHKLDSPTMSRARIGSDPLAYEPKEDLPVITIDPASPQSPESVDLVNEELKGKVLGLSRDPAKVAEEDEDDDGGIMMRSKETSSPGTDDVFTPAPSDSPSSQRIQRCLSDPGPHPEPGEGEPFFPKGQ
Nature of the data set: NHE inhibition FLIPR test (intracellular pH recovery, BCECF) in transfected LAP-1 cell lines. The format is cell-based. The following applies: transfected LAP-1 cell line expressing NHE1 subtype, BCECF fluorescence, pHi recovery after acidification. As to the method: The NHE inhibitory activities (IC50 values) of the compounds according to the invention were determined by a FLIPR test.
The test is performed in the FLIPR (Fluorescent Imaging Plate Reader) equipped with clear-bottomed and black-walled 96-well microtitration plates.
The growth medium for the transfected cells (Iscove+10% foetal calf serum) also comprises G418 as selection antibiotic to ensure the presence of transfected sequences.
The actual test begins by eliminating the growth medium and adding 100 μl of loading buffer per well (5 μM of BCECF-AM [2′,7′-bis(2-carboxyethyl)-5-(6)-carboxyfluoresceine acetoxymethyl ester] in 20 mM of NH4Cl 115 mM of choline chloride, 1 mM of CaCl2, 5 mM of KCl, 20 mM of HEPES and 5 mM of glucose; pH 7.4 (adjusted with KOH). The cells are then incubated for 20 minutes at 37° C. This incubation results in the loading of the fluorescent dye into the cells, the fluorescence intensity of which depends on the pHi, and on the NH4Cl, which results in a slight basification of the cells.
The precursor BCECF-AM, a non-fluorescent dye, is, as an ester, capable of crossing the membrane. The actual dye, which is incapable of crossing the membrane, is released inside the cell by esterases.
After this 20-minute incubation, the loading buffer, which comprises NH4Cl and free BCECF-AM, is removed by washing three times in the cell washing device (Tecan Columbus), each wash being performed with 400 μl of washing buffer (133.8 mM of choline chloride, 4.7 mM of KCl, 1.25 mM of MgCl2, 1.25 mM of CaCl2, 0.97 mM of K2HPO4, 0.23 mM of KH2PO4, 5 mM of HEPES and 5 mM of glucose; pH 7.4 (adjusted with KOH)). The residual volume remaining in the wells is 90 μl (possibly between 50 and 125 μl). This washing step removes the free BCECF-AM and results in an intracellular acidification (pHi of 6.3-6.4) due to the removal of the external ammonium ions.
As the equilibrium of the intracellular ammonium with the aqueous ammonia and the protons, by removal of the extracellular ammonium and by the subsequent immediate crossing of the aqueous ammonia across the cell membrane, is disrupted, the washing process results in intracellular protons remaining, which is the cause of the intracellular acidification. This acidification can result finally in the death of the cells if it lasts long enough. It is important here for the washing buffer to be free of sodium (<1 mM), otherwise the extracellular sodium ions would result in an immediate increase in the pHi on account of the activity of the cloned NHE isoforms. It is also important for all the buffers used (loading buffer, washing buffer and regeneration buffer) not to contain any HCO3-ions, otherwise the presence of bicarbonate would result in the activation of bicarbonate-dependent systems that disrupt the pHi regulation, which systems are contained in the LAP-1 parental cell line.
The microtiter plates containing acidified cells are then transferred (up to 20 minutes after the acidification) to the FLIPR. In the FLIPR, the intracellular fluorescent dye is activated with light of a wavelength of 488 nm, which is generated by an argon laser, and the measuring parameters (laser power, illumination time and diaphragm of the […] camera integrated into the FLIPR) are chosen such that the average value of the fluorescent signal per well is between 30,000 and 35,000 relative fluorescence units.
The actual measurement in the FLIPR starts with a photograph being taken by the CCD camera every two seconds under software control. After 10 seconds, the increase in the intracellular pH is initiated by adding 90 μl of regeneration buffer (133.8 mM of NaCl, 4.7 mM of KCl, 1.25 mM of MgCl2, 1.25 mM of CaCl2, 0.97 mM of K2HPO4, 0.23 mM of KH2PO4, 10 mM of HEPES and 5 mM of glucose; pH 7.4 (adjusted with NaOH)) using a 96-well pipette device incorporated into the FLIPR. Some wells, to which is added pure regeneration buffer, serve as positive controls (100% NHE activity). […]

`Cl.NC(N)=NC(=O)c1cn(-c2nccc3ccccc23)c2ccccc12` [Example 1, 3-Guanidinocarbonyl-1-(isoquinol-1-yl)-1H-indole hydrochloride] came in with a melting point of 262 °C. For the same compound, the IC50 in data set [1] is 14 nM.
The corresponding values for `Cl.NC(N)=NC(=O)c1cn(-c2ccnc3ccccc23)c2ccccc12` [Example 2, 3-Guanidinocarbonyl-1-(quinol-4-yl)-1H-indole hydrochloride] are 270 °C and 4 nM.
The compound `NC(N)=NC(=O)c1cn(-c2ccc3ccccc3n2)c2ccccc12` [Example 3, 3-Guanidinocarbonyl-1-(quinol-2-yl)-1H-indole hydrochloride] displayed an IC50 in data set [1] of 535 nM.
Consider `Cc1ccc2c(c1)c(C(=O)N=C(N)N)cn2-c1nccc2ccccc12.Cl` [Example 4, 3-Guanidinocarbonyl-1-(isoquinol-1-yl)-5-methyl-1H-indole hydrochloride], for which the melting point came to 268 °C. For the same compound, the 50% inhibitory concentration (IC50) in data set [1] was determined as 200 nM.
The compound `Cc1ccc2c(c1)c(C(=O)N=C(N)N)cn2-c1ccc2ccccc2n1.Cl` [Example 5, 3-Guanidinocarbonyl-5-methyl-1-(quinol-2-yl)-1H-indole hydrochloride] yielded a melting point of 268 °C. In addition, the IC50 in data set [1] was 4980 nM.
The corresponding values for `Cc1ccc2c(c1)c(C(=O)N=C(N)N)cn2-c1ccnc2ccccc12.Cl` [Example 6, 3-Guanidinocarbonyl-5-methyl-1-(quinol-4-yl)-1H-indole hydrochloride] are 268 °C and 206 nM.
`Cl.NC(N)=NC(=O)c1cn(-c2cnc3ccccc3c2)c2ccccc12` [Example 7, 3-Guanidinocarbonyl-1-(quinol-3-yl)-1H-indole hydrochloride] had a melting point of 268 °C. This compound also registered an IC50 in data set [1] of 433 nM.
In the same order, the values of `Cl.NC(N)=NC(=O)c1cn(-c2ccc3ncccc3c2)c2ccccc12` [Example 8, 3-Guanidinocarbonyl-1-(quinol-6-yl)-1H-indole hydrochloride] are 268 °C and 143 nM.
In the same order, the values of `N=C(N)NC(=O)c1cn(-c2cccc3cccnc23)c2ccccc12` [Example 9, 3-Guanidinocarbonyl-1-(quinol-8-yl)-1H-indole] are 172 °C and 275 nM.
Take `N=C(N)NC(=O)c1cn(-c2cc3ccccc3cn2)c2ccccc12` [Example 10, 3-Guanidinocarbonyl-1-(isoquinol-3-yl)-1H-indole hydrochloride]: half-maximal inhibition in data set [1] (IC50) required 1870 nM.
On the same count and under the same terms, next, `COc1ccc2c(C(=O)NC(=N)N)cn(-c3ccnc4ccccc34)c2c1` [Example 11, 3-Guanidinocarbonyl-6-methoxy-1-(quinol-4-yl)-1H-indole dihydrochloride]: 47 nM; `N=C(N)NC(=O)c1cn(-c2ccnc3ccccc23)c2cc(F)ccc12` [Example 12, 6-Fluoro-3-guanidinocarbonyl-1-(quinol-4-yl)-1H-indole hydrochloride]: 76 nM; `N=C(N)NC(=O)c1cn(-c2ccnc3ccccc23)c2ccc(F)cc12` [Example 13, 5-Fluoro-3-guanidinocarbonyl-1-(quinol-4-yl)-1H-indole hydrochloride]: 39 nM.
On the same count and under the same terms, then `N=C(N)NC(=O)c1cn(-c2ccnc3ccccc23)c2ccc(Cl)cc12` [Example 14, 5-Chloro-3-guanidinocarbonyl-1-(quinolin-4-yl)-1H-indole], with 2460 nM; and `NC(N)=NC(=O)c1cn(-c2cnnc3ccccc23)c2ccccc12` [Example 15, N-[1-(Cinnolin-4-yl)-1H-indole-3-carbonyl]-guanidine trifluoroacetate], with 1.5 nM.
The same measure, in the same setting: next, `COc1ccc2c(c1)c(C(=O)N=C(N)N)c(C)n2-c1cnnc2ccccc12` [Example 16, N-[1-(Cinnolin-4-yl)-5-methoxy-2-meth-yl-1H-indole-3-carbonyl]-guani-dine trifluoroacetate]: 1670 nM.

One may read the IC50 as the midpoint of a concentration-inhibition curve. A higher IC50 goes with a need for much substance. As a reminder, the melting point is the temperature of the solid-liquid transition.
